# Laboratory results: patent US10221168B1, “Small-compound enhancers for functional O-mannosylation of alpha-dystroglycan, and uses thereof” (priority 2015, dated 2019)
# Test system: FOG of α-DG on the cell surfaces
# Assay: Cell-based HTS/HCS assay, IIH6 antibody as probe (EC1.5)
# Details: concentration of the compound required to enhance the FOG of α-DG by 50% over the controls; cell-based assays in vitro
# From the text: (§1) Protein glycosylation is a multiple-step process that requires a large number of proteins in the secretory pathway of the cells. Thus we chose cell-based assay because our goal is to identify enhancer the FOG of α-DG on the cell surfaces. The assay system is HTS/HCS friendly and can adapt to various cell lines including myotubes as well as various readout methods including AlphaScreen, fluorescence density and HCS/fluorescence imaging. The standard operation protocol (SOP) for adhesion cells is described below and the FIG. 1 illustrates the assay process using myoblasts as the controls and screening cells and the IIH6 antibody as the probe. Other adhesion cells such CHO (Chinese hamster ovary) cell line can be implemented into this assay by simply removing the differentiation step.
# Cell cultures: All cells are cultured at 37° C., 5% CO2, in appropriate media (F-12 for epithelial cells and DMEM for myoblasts) supplement with 10-20% fetal calf serum (FCS) and 1% antibiotics. […] The cells will be detached with trypsin EDTA and suspended in the cell culture media. The cells will be counted and seeded into the multiple-well plates as desired. Myotubes formation: When the myoblasts reach confluence, change the growth media to differential media (DEME with 2% horse serum) and incubate for 4-5 days.
# The cells were fixed, permeablized, and then blocked with 10% BSA in PBS for 1 hour. […] After washing the cells with PBS for 2 times, the DAPI was used to stain the cells for 15 mins and wash 3 times with PBS. The images were captured with an inverted Olympus fluorescent microscope. For small compound localization experiment, the cells are incubated with the biotin conjugated compounds and then the cells were washed and incubated with streptavidin-Dye and then images will be captured to see the location of the compound-target-protein.
# H, EC1.5<5 μM; M, EC1.5-20 μM; L, EC1.5 20-50 μM; VL, EC1.5>50 μM.
row,Structure (SMILES),Activity (EC1.5)
1,"CCC(c1nnnn1Cc1cccs1)N1CCN(c2nc3cc(N)cc(F)c3s2)CC1 (stereo not shown) [Compound 46, 5-amino-7-fluoro-2-(4-(1-(1-(thiophen-2-ylmethyl)-1H-tetrazol-5-yl)propyl)piperazin-1-yl)benzothiazole]",H (EC1.5<5 μM)
2,"CCC(c1nnnn1Cc1ccc(F)s1)N1CCN(c2nc3cc(N)cc(F)c3s2)CC1 (stereo not shown) [Compound 57, 5-amino-7-fluoro-2-(4-(1-(1-(5-fluoro-thiophen-2-ylmethyl)-1H-tetrazol-5-yl)propyl)piperazin-1-yl)benzothiazole]",H (EC1.5<5 μM)
3,"CCC(c1nnnn1Cc1ccc([N+](=O)[O-])s1)N1CCN(c2nc3cc(N)cc(F)c3s2)CC1 (stereo not shown) [Compound 58, 5-amino-7-fluoro-2-(4-(1-(1-(5-nitro-thiophen-2-ylmethyl)-1H-tetrazol-5-yl)propyl)piperazin-1-yl)benzothiazole]",H (EC1.5<5 μM)
4,"CCC(c1nnnn1Cc1ccc(F)s1)N1CCN(c2nc3cc(N)cc(F)c3s2)C(C)C1 (stereo not shown) [Compound 59, 5-amino-7-fluoro-2-(4-(1-(1-(5-fluoro-thiophen-2-ylmethyl)-1H-tetrazol-5-yl)propyl)-2-methyl-piperazin-1-yl)benzothiazole]",H (EC1.5<5 μM)
5,"CCC(c1nnnn1CCc1ccc(F)s1)N1CCN(c2nc3cc(N)cc(F)c3s2)C(C)C1 (stereo not shown) [Compound 60, 5-amino-7-fluoro-2-(4-(1-(1-(5-fluoro-thiophen-2-ylethyl)-1H-tetrazol-5-yl)propyl)-2-methyl-piperazin-1-yl)benzothiazole]",H (EC1.5<5 μM)
6,"CCC(c1nnnn1CCc1cccs1)N1CCN(C2Sc3c(F)cc(N)cc3N2N)CC1 (stereo not shown) [Compound 61, 5-amino-7-fluoro-3-amino-2-(4-(1-(1-(thiophen-2-ylethyl)-1H-tetrazol-5-yl)propyl)piperazin-1-yl)benzothiazole]",H (EC1.5<5 μM)
7,"CCC(c1nnnn1CCc1cccs1)N1CCN(C2Sc3c(F)cc(N)cc3N2[N+](=O)[O-])CC1 (stereo not shown) [Compound 62, 5-amino-7-fluoro-3-nitro-2-(4-(1-(1-(thiophen-2-ylethyl)-1H-tetrazol-5-yl)propyl)piperazin-1-yl)benzothiazole]",H (EC1.5<5 μM)
8,"CCC(c1nnnn1CCc1cccs1)N1CCN(C2Sc3c(F)cc(N)cc3N2C)CC1 (stereo not shown) [Compound 63, 5-amino-7-fluoro-3-methyl-2-(4-(1-(1-(thiophen-2-ylethyl)-1H-tetrazol-5-yl)propyl)piperazin-1-yl)benzothiazole]",H (EC1.5<5 μM)
9,"CCC(c1nnnn1CCc1cccs1)N1CCN(c2nc3cc(N)cc(F)c3s2)CC1[N+](=O)[O-] (stereo not shown) [Compound 64, 5-amino-7-fluoro-2-(4-(1-(1-(thiophen-2-ylethyl)-1H-tetrazol-5-yl)propyl)-3-nitro-piperazin-1-yl)benzothiazole]",H (EC1.5<5 μM)
10,"CCC(c1nnnn1CCc1cccs1)N1CCN(c2nc3cc(N)cc(F)c3s2)CC1[N+](=O)[O-] (stereo not shown) [Compound 65, 5-amino-7-fluoro-2-(4-(1-(1-(thiophen-2-ylethyl)-1H-tetrazol-5-yl)propyl)-5-nitro-piperazin-1-yl)benzothiazole]",H (EC1.5<5 μM)
11,"CCC(c1nnnn1CCc1cccs1)N1CCN(c2nc3cc(N)cc(F)c3s2)C(N)C1 (stereo not shown) [Compound 66, 5-amino-7-fluoro-2-(4-(1-(1-(thiophen-2-ylethyl)-1H-tetrazol-5-yl)propyl)-2-amino-piperazin-1-yl)benzothiazole]",H (EC1.5<5 μM)
12,"CCC(c1nnnn1CCc1cccs1)N1CCN(c2nc3cc(N)cc(F)c3s2)C([N+](=O)[O-])C1 (stereo not shown) [Compound 67, 5-amino-7-fluoro-2-(4-(1-(1-(thiophen-2-ylethyl)-1H.tetrazol-5-yl)propyl)-2-nitro-piperazin-1-yl)benzothiazole]",H (EC1.5<5 μM)
13,"CCC(c1nnnn1Cc1cccs1)C1CCCC(c2nc3cc(N)cc(F)c3s2)CC1 (stereo not shown) [Compound 68, 5-amino-7-fluoro-2-(4-(1-(1-(thiophen-2-ylmethyl)-1H-tetrazol-5-yl)propyl)cycloheptyl)benzothiazole]",H (EC1.5<5 μM)
14,"CCC(c1nnnn1Cc1cccs1)C1CCN(c2nc3cc(N)cc(F)c3s2)C1 (stereo not shown) [Compound 69, 5-amino-7-fluoro-2-(4-(1-(1-(thiophen-2-ylmethyl)-1H-tetrazol-5-yl)propyl)pyrrolidine-1-yl)benzothiazole]",H (EC1.5<5 μM)
15,"CCC(c1nnnn1Cc1cccs1)C1CCCN(c2nc3cc(N)cc(F)c3s2)CC1 (stereo not shown) [Compound 70, 5 amino-7-fluoro-2-(4-(1-(1-(thiophen-2-ylmethyl)-1H-tetrazol-5-yl)propyl)azepane-1-yl)benzothiazole]",H (EC1.5<5 μM)
16,"CCC(c1nnnn1Cc1cccs1)N1CCCN(c2nc3cc(N)cc(F)c3s2)CC1 (stereo not shown) [Compound 71, 5-amino-7-fluoro-2-(4-(1-(1-(thiophen-2-ylmethyl)-1H-tetrazol-5-yl)propyl)1,4-diazepane-1-yl)benzothiazole]",H (EC1.5<5 μM)
17,"CCC(c1nnnn1Cc1cccs1)N1CCCN(c2nc3cc(N)cc(F)c3s2)CCC1 (stereo not shown) [Compound 72, 5-amino-7-fluoro-2-(5-(1-(1-(thiophen-2-ylmethyl)-1H-tetrazol-5-yl)propyl)1,5-diazocane-1-yl)benzothiazole]",H (EC1.5<5 μM)
18,"CCC(c1nnnn1Cc1ccns1)N1CCN(c2nc3cc(N)cc(F)c3s2)CC1 (stereo not shown) [Compound 73, 5-amino-7-fluoro-2-(4-(1-(1-(isothiazol-5-ylmethyl)-1H-tetrazol-5-yl)propyl)piperazin-1-yl)benzothiazole]",H (EC1.5<5 μM)
19,"CCC(c1nnnn1CCc1ccns1)N1CCN(c2nc3cc(N)cc(F)c3s2)CC1 (stereo not shown) [Compound 74, 5-amino-7-fluoro-2-(4-(1-(1-(isothiazol-5-ylethyl)-1H-tetrazol-5-yl)propyl)piperazin-1-yl)benzothiazole]",H (EC1.5<5 μM)
20,"CCC(c1nnnn1CCc1cccs1)N1CCCN(c2nc3cc(N)cc(F)c3s2)CC1 (stereo not shown) [Compound 75, 5-amino-7-fluoro-2-(4-(1-(1-(thiophen-2-ylethyl)-1H-tetrazol-5-yl)propyl)1,4-diazepane-1-yl)benzothiazole]",H (EC1.5<5 μM)
21,"CCC(c1nnnn1CCc1cccs1)N1CCCN(c2nc3cc(N)cc(F)c3s2)CC1 (stereo not shown) [Compound 76, 5-amino-7-fluoro-2-(4-(1-(1-(thiophen-2-ylethyl)-1H-tetrazol-5-yl)propyl)1,4-diazepane-1-yl)benzothiazole]",H (EC1.5<5 μM)

# Test system: functional O-mannosylation of α-DG on cell surfaces (CHO, C2C12, HSMB, FKRPD cells)
# Assay: Immuno-fluorescent staining with IIH6 antibody after compound treatment (FIG. 1)
# Format: cell-based, Chinese hamster, mouse, human
# Details: FKRPD cells in 96 well-plates, series of concentrations, 48 hours
# Description: The Chinese hamster ovary (CHO), mouse myoblasts (C2C12), normal human myoblasts (HSMB), human FKRP deficient myoblasts (FKRPD) were grown in 96 well-plates and treated with the compound at a series concentrations for 48 hours. The cells were examined with immuno-fluorescent staining using the IIH6 antibody that recognize the FOG of α-DG as the primary antibody followed by an appropriate secondary antibody conjugated with fluorophore. The detailed protocol is described in experiment section below.
# as §1
# The cells were fixed, permeablized, and then blocked with 10% BSA in PBS for 1 hour. […]
row,Structure (SMILES),enhancement of the functional O-mannosylation of α-DG on cell surfaces
1,"CCC(c1nnnn1Cc1cccs1)N1CCN(c2nc3cc(N)cc(F)c3s2)CC1 (stereo not shown) [Compound 46, 5-amino-7-fluoro-2-(4-(1-(1-(thiophen-2-ylmethyl)-1H-tetrazol-5-yl)propyl)piperazin-1-yl)benzothiazole]",dose-dependent enhancement
